Data reported in ChEMBL document CHEMBL1131848, “8-aminoquinolines as anticoccidials - Part III” (Bioorg Med Chem Lett, 1999).
Converted amounts (≈) assume the structure as drawn.

How the values were obtained:
[1] = tested on: Eimeria tenella; assay: In vitro anti-coccidial activity against chicken hepatocyte Eimeria tenella; type: functional, organism-based
[2] = tested on: Eimeria tenella; assay: In vivo anti-coccidial activity against Eimeria tenella (chick 7-day coccidiosis model); type: functional
[3] = tested on: Eimeria acervulina; assay: In vivo anti-coccidial activity against Eimeria acervulina (chick 7-day coccidiosis model); type: functional
[4] = tested on: Eimeria acervulina; assay: In vitro anti-coccidial activity against chicken hepatocyte Eimeria acervulina; type: functional, organism-based

Structure (SMILES) | IC50 [1] [µg/mL] | ED95 [2] [p.p.m. in feed] | ED95 [3] [p.p.m. in feed] | IC50 [4] [µg/mL]
COc1cc(NCCCCCNC2CCCO2)c2ncccc2c1 (configuration not stated) | 0.2 (≈ 0.607 µM) | 12.5 | 12.5 | 1 (≈ 3.04 µM)
COc1cc(N[C@@H](C)CCCNC(C)C)c2ncccc2c1 | > 1 | >50 | >50 | 1 (≈ 3.32 µM)
COc1cc(NCCCCCNC2CC2)c2ncccc2c1 | 0.2 (≈ 0.668 µM) | >12.5 | >12.5 | 0.2 (≈ 0.668 µM)
COc1cc(NCCCCCNC(C)(C)C)c2ncccc2c1 | 0.2 (≈ 0.634 µM) | 6.25 | >25 | 0.2 (≈ 0.634 µM)
COc1cc(NCCCCCNCc2ccccc2)c2ncccc2c1 | 0.2 (≈ 0.572 µM) | >25 | >25 | 0.2 (≈ 0.572 µM)
COc1cc(NCCCCCNC2CCOCC2)c2ncccc2c1 | 0.2 (≈ 0.582 µM) | 6.25 | 12.5 | 0.2 (≈ 0.582 µM)
COc1cc(NCCCCNC(C)C)c2ncccc2c1 | 0.2 (≈ 0.696 µM) | 6.25 | 6.25 | 0.2 (≈ 0.696 µM)
COc1cc(NCCCCCNC2CC[S+]([O-])CC2)c2ncccc2c1 (configuration not stated) | > 1 | >25 | >25 | > 5
CCNCCCCCNc1cc(OC)cc2cccnc12 | 0.2 (≈ 0.696 µM) | 6.25 | >50 | 0.2 (≈ 0.696 µM)
CCN(CC)CCC[C@H](C)Nc1cc(OC)cc2cccnc12 | 0.2 (≈ 0.634 µM) | >50 | >50 | > 1
COc1cc(NCCNC(C)C)c2ncccc2c1 | > 1 | >25 | >25 | 1 (≈ 3.86 µM)
COc1cc(NCCCCCNC2CCCC2)c2ncccc2c1 | 0.2 (≈ 0.611 µM) | >25 | >25 | 0.2 (≈ 0.611 µM)
COc1cc(NCCCCCNC(C)C)c2ncccc2c1 [PENTAQUINE] | 0.2 (≈ 0.663 µM) | 12.5 | 12.5 | 0.2 (≈ 0.663 µM)
COc1cc(NCCCCCN)c2ncccc2c1 | > 1 | 100 | 100 | 1 (≈ 3.86 µM)
COc1cc(NCCCNC(C)C)c2ncccc2c1 | 0.2 (≈ 0.732 µM) | >25 | >25 | 0.2 (≈ 0.732 µM)
COc1cc(NCCCCCNC2CCSCC2)c2ncccc2c1 | 0.2 (≈ 0.556 µM) | >50 | >50 | 1 (≈ 2.78 µM)
COc1cc(NCc2ccc(NC(C)C)cc2)c2ncccc2c1 | > 1 | >12.5 | >12.5 | 1 (≈ 3.11 µM)
N#CC(c1ccc(Cl)cc1)c1c(Cl)cc(-n2ncc(=O)[nH]c2=O)cc1Cl (configuration not stated) [DICLAZURIL] | 0.008 (≈ 0.0196 µM) | 1 | 1 | 0.008 (≈ 0.0196 µM)
